Reference: US20220133894A1, “BISPHOSPHONATE-LINKED COMPOUNDS” (OREGON HEALTH & SCIENCE UNIVERSITY, priority 2019, published 2022)

How the values were obtained:
[1] = tested on: PC3-luc cells; assay: PCa intracardiac injection model, bone destruction by CT and survival; assay type: in vivo, mice
[2] = tested on: RAW 267.4 cells; assay: Osteo Assay pit formation, osteoclast-mediated bone degradation; assay type: cell-based, mouse
[3] = tested on: prostate specific antigen (PSA); assay: PSA expression by qRT/PCR in VCaP cells; assay type: cell-based, human; conditions: VCaP cells in androgen depleted media
Method: (§1) Cells were cultured in media depleted of androgen and after a washout of 72 hrs were treated with the synthetic androgen R1881, KBU2046, enzalutamide and/or vehicle (control), and resultant effects upon induction of the androgen-responsive gene, prostate specific antigen (PSA) were measured (FIG. 3A).
(§2) LNCaP or VCaP cells cultured in hormone free media were treated with R1881 (R), KBU2046 (46) and/or enzalutamide (E). (FIGS. 3A and 3B) Effects on AR-responsive gene expression. PSA expression was measured by qRT/PCR, normalized to GAPDH and expressed as a percent of control cells (N=3 replicates); * denotes P<0.05 for groups separated by bar. (FIGS. 3C and 3D) Effects on cell growth. Three day growth assays were performed. Data are the number of viable cells, expressed as % of control (N=3 replicates); * P<0.05 compared to control. (E) Effects on AR activation. Western blots of nuclear (N) and cytoplasmic (C) preparations of cell extracts were probed for AR, laminin 1 or α-tubulin. (FIGS. 3F and 3G) Effects on tumor outgrowth after androgen deprivation therapy. LNCaP/AR-luc cells were implanted subcutaneously (N=6 mice/cohort) or orthotopic (N=15 mice/cohort were implanted; N=5 yielded tumors) into castrate mice, treatment with KBU2046 began as noted, and weekly IVIS imaging performed. Data are tumor size, expressed as luminescence intensity. All data are expressed as mean±SEM.
(§3) RNA was isolated and qRT/PCR performed as previously described by us (Ding et al., J Biomol Tech 18, 321-330 (2007)). Resultant data were analyzed using the 2^−ΔΔt method (Livak et al., Methods 25, 402-408 (2001)), normalized to GAPDH, for the following primer/probe sets (ABI) PSA (Hs02576345_m1) and GAPDH (Hs99999905_m1). Assays were performed in triplicate, and were repeated.

[4] = tested on: prostate specific antigen (PSA); assay: PSA expression by qRT/PCR in LNCaP cells; assay type: cell-based, human; conditions: LNCaP cells in androgen depleted media
Method: as §1, §2, §3

[5] = tested on: RAW 267.4 cells; assay: Osteoclast morphology and maturation (actin/DAPI immunofluorescence, TRAP staining); assay type: cell-based, mouse; conditions: Raf1-specific inhibitors; TRAP staining, multinucleated cells, resorptive cavity formation
Excerpt: Treatment of RAW 267.4 cells with KBU2046 induces several structural and functional changes. It reduces RANKL-mediated formation of multinucleated cells, and those that do form have lower numbers of nuclei (see 40× panels, FIG. 4B). The characteristic prominent actin ring (white arrow) surrounding the resorptive cavity (yellow arrow) is readily apparent in control cells treated with RANKL ligand, but is lacking in KBU2046-treated cells (100×, panels). Consistent with it inhibiting maturation of RAW 267.4 cells, TRAP staining is decreased in KBU2046-treated cells (FIG. 4C).
FIG. 4 represents the KBU2046 inhibition of osteoclast function. FIG. 4A compares effects on Raf1 activation. RAW 267.4 cells were treated with RANKL for 4 days, treated with 10 μM KBU2046 for the indicated time periods, and Western blot for the denoted proteins performed. (B) Effects on cell morphology. RAW 267.4 cells were treated with RANKL and with KBU2046 for 4 days, or not, and denoted, and stained for actin (green) and DAPI (blue); white arrow denotes an actin ring, yellow arrow a resorptive cavity. Representative immunofluorescent images are depicted. (C) Tartrate resistant acid phosphatase (TRAP) expression. Cells were treated as in B, stained for TRAP (denoted by presence of red), and representative images from light microscopy depicted. (D) Bone degradation. RAW 267.4 cells were plated onto Osteo Assay plates, treated with RANKL for 6 days and with KBU2046 (or vehicle for controls) as indicated and bone surface area quantified. Data are the mean±SEM (N=3 replicates) of bone surface area, expressed as the percentage of control cells; * denotes P<0.05 compared to control.
Raw 264.7 cells were grown in differentiation medium (described below), with or without KBU2046, for 4 days on a Chamber Slide (Nunc Lab-Tek). Chambers were washed once with PBS, followed by 10-minute fixation in cold 10% neutral-buffered formalin (VWR) and a post-fixation wash with PBS. […] The cells were then incubated for 2 hours at 4° C. in Dylight Phallodin (Cell Signaling technology, #12935) antibody diluted 1:40 in 1×PBS with 1% BSA and 0.3% Triton X-100. Subsequently, the slide was washed once with PBS, a coverslip mounted with ProLong Gold Antifade Reagent with DAPI (Cell Signaling Technology, #8961), and imaged on a Confocal Microscope (Nikon/Yokogawa Spinning Disc).

[6] = experimental compounds with RANKL, day 6, FIGS. 6A-6L
[7] = Raf1-specific inhibitors, Supplementary Fig. S5

With `O=P(O)(O)C(O)(Cn1ccnc1)P(=O)(O)O` [ZA, zoledronic acid] as the compound, how does the “improvement of femur bone density compared to control” value ([1]; oral 150 mg KBU2046/kg daily, intraperitoneal ZA 100 μg/kg weekly, CT) read?
Its value is 56±2.7%.

Which osteoclast-mediated bone degradation [2, 6] does the source give for `O=C(CCOCCOCCOCCNC(=O)COc1ccc2c(c1)OCC(c1ccc(F)cc1)C2=O)NCC(O)C[n+]1ccn(CC(O)([PH](=O)O)P(=O)(O)O)c1` (centres unmarked) [Compound H, (2-(3-(1-((3-(4-fluorophenyl)-4-oxochroman-7-yl)oxy)-15-(I1-oxidaneyl)-2,12-dioxo-6,9-dioxa-3,13-diazahexadecan-16-yl)-1H-3I4-imidazol-1-yl)-1-hydroxyethane-1,1-diyl)bis(hydrogen phosphonate)] here?
Its osteoclast-mediated bone degradation is “inhibiting”.

With `O=C(CCOCCOCCNC(=O)COc1ccc2c(c1)OCC(c1ccc(F)cc1)C2=O)NCCCC(O)(P(=O)(O)O)P(=O)(O)O` (centres unmarked) [Compound E (n=2), (1-((3-(4-fluorophenyl)-4-oxochroman-7-yl)oxy)-17-hydroxy-2,12-dioxo-6,9-dioxa-3,13-diazaheptadecane-17,17-diyl)bis(phosphonic acid)] as the compound, how does the osteoclast-mediated bone degradation [2, 6] read?
The osteoclast-mediated bone degradation was “inhibiting”.

How did the osteoclast-mediated bone degradation [2, 6] turn out when `O=C(CCOCCOCCOCCCNC(=O)COc1ccc2c(c1)OCC(c1ccc(F)cc1)C2=O)NCCCC(O)(P(=O)(O)O)P(=O)(O)O` (centres unmarked) [Compound E (n=3), (1-((3-(4-fluorophenyl)-4-oxochroman-7-yl)oxy)-21-hydroxy-2,16-dioxo-7,10,13-trioxa-3,17-diazahenicosane-21,21-diyl)bis(phosphonic acid)] was run?
Its osteoclast-mediated bone degradation is “inhibiting”.

How did the PSA expression [3] turn out when `C[C@]1(O)CC[C@H]2[C@@H]3CCC4=CC(=O)CCC4=C3C=C[C@@]21C` [Compound R1881] was run?
The PSA expression was “significantly increased”.

And the PSA expression [4]?
Its PSA expression is “significantly increased”.

What does the source list for `Cc1ccc(C(=O)Nc2cccc(C(F)(F)F)c2)cc1Nc1nc(-c2cccnc2)nc2c1cnn2C` [NVP-BHG712]?
osteoclast-mediated bone degradation [2, 7]: inhibit; RANKL-induced osteoclast maturation [5]: inhibit

With `O=C(CCOCCNC(=O)COc1ccc2c(c1)OCC(c1ccc(F)cc1)C2=O)NCCCC(O)(P(=O)(O)O)P(=O)(O)O` (centres unmarked) [Compound E (n=1), (4-(3-(2-(2-((3-(4-fluorophenyl)-4-oxochroman-7-yl)oxy)acetamido)ethoxy)propanamido)-1-hydroxybutane-1,1-diyl)bis(phosphonic acid)] as the compound, how does the survival ([1]; 10, 100 or 1000 ug/kg weekly intraperitoneal, from 1 week before IC injection) read?
The survival was “prolongs”.

And the “bone destruction in the jaw” value ([1]; 10, 100 or 1000 μg/kg weekly intraperitoneal, from 1 week before IC injection, CT)?
The value was “inhibits”.

And the osteoclast-mediated bone degradation [2, 6]?
Its osteoclast-mediated bone degradation is “inhibiting”.

Which results are given for `Cc1ccc(NC(=O)c2cccc(N(C)C)c2)cc1NC(=O)c1ccc(O)cc1` [ZM336372]?
osteoclast-mediated bone degradation [2, 7]: inhibit; RANKL-induced osteoclast maturation [5]: inhibit

Which results are given for `O=C1Nc2ccc(I)cc2/C1=C/c1cc(Br)c(O)c(Br)c1` [GW5074]?
osteoclast-mediated bone degradation [2, 7]: inhibit; RANKL-induced osteoclast maturation [5]: inhibit

How did the osteoclast-mediated bone degradation [2, 6] turn out when `O=C(CCOCCOCCOCCOCCNC(=O)COc1ccc2c(c1)OCC(c1ccc(F)cc1)C2=O)NCC(O)C[n+]1ccn(CC(O)([PH](=O)O)P(=O)(O)O)c1` (centres unmarked) [Compound I, (2-(3-(1-((3-(4-fluorophenyl)-4-oxochroman-7-yl)oxy)-18-(I1-oxidaneyl)-2,15-dioxo-6,9,12-trioxa-3,16-diazanonadecan-19-yl)-1H-3I4-imidazol-1-yl)-1-hydroxyethane-1,1-diyl)bis(hydrogen phosphonate)] was run?
Its osteoclast-mediated bone degradation is “inhibiting”.

With `O=C(CCOCCNC(=O)COc1ccc2c(c1)OCC(c1ccc(F)cc1)C2=O)NCC(O)C[n+]1ccn(CC(O)(P(=O)(O)O)P(=O)(O)O)c1` (centres unmarked) [Compound G, 3-(3-(3-(2-(2-((3-(4-fluorophenyl)-4-oxochroman-7-yl)oxy)acetamido)ethoxy)propanamido)-2-hydroxypropyl)-1-(2-hydroxy-2,2-diphosphonoethyl)-1H-imidazol-3-ium] as the compound, how does the osteoclast-mediated bone degradation [2, 6] read?
Its osteoclast-mediated bone degradation is “inhibiting”.
